Assay results reported in PubChem BioAssay (NCI).
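Results reflect a 48-hour exposure of cells in 96-well plates to compound at five concentrations. The concentration for full growth arrest is given as TGI.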

Experiments:
Assay in all cases: growth of human tumour cells (NCI), 48 h
SW-620 colon = tested on: SW-620 colon
UACC-257 melanoma = tested on: UACC-257 melanoma
NCI-H23 lung = tested on: NCI-H23 lung
OVCAR-8 ovarian = tested on: OVCAR-8 ovarian
K-562 leukemia = tested on: K-562 leukemia
UO-31 renal = tested on: UO-31 renal
MOLT-4 leukemia = tested on: MOLT-4 leukemia
EKVX NSCLC = tested on: EKVX NSCLC
A549 NSCLC = tested on: A549 NSCLC
SN12C renal = tested on: SN12C renal
OVCAR-5 ovarian = tested on: OVCAR-5 ovarian
KM20L2 colon = tested on: KM20L2 colon
SK-MEL-28 melanoma = tested on: SK-MEL-28 melanoma
SNB-19 CNS = tested on: SNB-19 CNS
RXF 393 renal = tested on: RXF 393 renal
HOP-62 NSCLC = tested on: HOP-62 NSCLC
HL-60(TB) leukemia = tested on: HL-60(TB) leukemia
SF-268 CNS = tested on: SF-268 CNS
NCI-H522 lung = tested on: NCI-H522 lung
MCF7 breast = tested on: MCF7 breast

Row | Structure (SMILES) | TGI (SW-620 colon) | TGI (UACC-257 melanoma) | TGI (NCI-H23 lung) | TGI (OVCAR-8 ovarian) | TGI (K-562 leukemia) | TGI (UO-31 renal) | TGI (MOLT-4 leukemia) | TGI (EKVX NSCLC) | TGI (A549 NSCLC) | TGI (SN12C renal) | TGI (OVCAR-5 ovarian) | TGI (KM20L2 colon) | TGI (SK-MEL-28 melanoma) | TGI (SNB-19 CNS) | TGI (RXF 393 renal) | TGI (HOP-62 NSCLC) | TGI (HL-60(TB) leukemia) | TGI (SF-268 CNS) | TGI (NCI-H522 lung) | TGI (MCF7 breast)
1 | CCO[C@]12C[C@H](OC)[C@@]3(O)CC(C1[C@H]3O)C13C4C2[C@H](OC)C1[C@](COC)(CN4CC)[C@H](O)C[C@@H]3OC (stereo partly specified) | > 100 µM | > 100 µM | > 100 µM | > 100 µM | > 100 µM | > 100 µM | > 100 µM | > 100 µM | > 100 µM | > 100 µM | > 100 µM | > 100 µM | > 100 µM | > 100 µM | > 100 µM | > 100 µM | > 100 µM | > 100 µM |  | 
2 | CC(C)[C@](O)(C(=O)OCC1CC[N+]2([O-])CC[C@@H](O)C12)[C@H](C)O (stereo partly specified) | > 375 µM | > 375 µM | > 375 µM | > 375 µM | > 375 µM | > 375 µM | > 375 µM | > 375 µM | > 375 µM | > 375 µM | > 375 µM | > 375 µM | > 375 µM | > 375 µM | > 375 µM | > 375 µM | > 375 µM | > 375 µM | > 375 µM | > 375 µM
3 | CC(=O)Oc1ccccc1C(=O)O | > 100 µM | > 100 µM | > 100 µM | > 100 µM | > 100 µM | > 100 µM | > 100 µM | > 100 µM | > 100 µM | > 100 µM | > 100 µM |  | > 100 µM | > 100 µM | > 100 µM | > 100 µM | > 100 µM | > 100 µM | > 100 µM | > 100 µM
4 | COc1ccc(N2C(=O)C3c4[nH]c5cccc(C)c5c4C4CCC(C(C)(C)C)CC4C3C2=O)cc1 (stereo unspecified) | > 10 µM |  | > 10 µM | > 10 µM | > 10 µM | > 10 µM | > 10 µM | > 10 µM | > 10 µM | > 10 µM | > 10 µM |  | > 10 µM | > 10 µM | > 10 µM | > 10 µM | > 10 µM | > 10 µM | > 10 µM | > 10 µM
5 | Clc1c(Cl)c2c(Cl)c(Cl)c1C[P+](c1ccccc1)(c1ccccc1)CC[P+](c1ccccc1)(c1ccccc1)Cc1c(Cl)c(Cl)c(c(Cl)c1Cl)C[P+](c1ccccc1)(c1ccccc1)CC[P+](c1ccccc1)(c1ccccc1)C2 | 13.6 µM | 6.38 µM | 5.25 µM | 19 µM | 9.17 µM | 21.2 µM | 10.5 µM | 21.7 µM | 18.8 µM | 15.3 µM | 13.2 µM | 12.9 µM | 5.13 µM | 13.4 µM | 10.9 µM | 18.5 µM |  | 12.6 µM | 9.26 µM | 
6 | CC#C[I+]c1ccccc1 |  | 51.7 µM | 39.7 µM | 31.2 µM | 33.3 µM | 97.5 µM | 42.2 µM | 36.7 µM | > 100 µM | 25.6 µM | 77.8 µM | 36.1 µM | 50.4 µM | > 100 µM | 36.9 µM | 96.6 µM | 33.8 µM | 35.1 µM | 13.1 µM | 
